Results from patent US9469650B2, “Melampomagnolide B derivatives” (BOARD OF TRUSTEES OF THE UNIVERSITY OF ARKANSAS, priority 2013, dated 2016).

What was measured:
[1] = tested on: MOLT-4; experiment: panel of 60 human tumor cell lines, growth inhibition (Leukemia); details: MOLT-4
[2] = tested on: LOX IMVI; experiment: panel of 60 human tumor cell lines, growth inhibition (Melanoma)
[3] = tested on: M14; experiment: as above; details: M14
[4] = tested on: SK-MEL-2; experiment: as above; details: SK-MEL-2
[5] = tested on: SK-MEL-28; experiment: as above; details: SK-MEL-28
[6] = tested on: SK-MEL-5; experiment: as above; details: 8K-MEL-5
[7] = tested on: SNB-75; experiment: panel of 60 human tumor cell lines, growth inhibition (CNS Cancer); details: SNB-75
[8] = tested on: HCT-116; experiment: panel of 60 human tumor cell lines, growth inhibition (Colon Cancer); details: HCT-116
[9] = tested on: SW-620; experiment: as above; details: SW-620
[10] = tested on: CAKI-1; experiment: panel of 60 human tumor cell lines, growth inhibition (Renal Cancer); details: CAKI-1
[11] = tested on: SN12C; experiment: as above
[12] = tested on: UO-31; experiment: as above; details: UO-31
[13] = tested on: MCF7; experiment: panel of 60 human tumor cell lines, growth inhibition (Breast Cancer); details: MCF7
[14] = tested on: MDA-MB-231/ATCC; experiment: as above; details: MDA-MB-231/ATCC
[15] = tested on: T-47D; experiment: as above; details: T-47D
[16] = tested on: OVCAR-3; experiment: panel of 60 human tumor cell lines, growth inhibition (Ovarian Cancer); details: OVCAR-3
[17] = tested on: NCI/ADR-RES; experiment: as above
[18] = tested on: PC-3; experiment: panel of 60 human tumor cell lines, growth inhibition (Prostate Cancer); details: PC-3
[19] = tested on: A549/ATCC; experiment: panel of 60 human tumor cell lines, growth inhibition (Non-Small Cell Lung Cancer); details: A549/ATCC

Structure (SMILES): C=C1C(=O)O[C@H]2[C@H]1CC/C(COC(=O)NCCN1CCCCC1)=C\CC[C@@]1(C)O[C@@H]21 [JVM 2-13]
- TGI [1]: 13.3 µM
- Percent Growth ([1]; Log10 Concentration −4.0): −49%
- Percent Growth ([1]; Log10 Concentration −5.0): 7%
- Percent Growth ([1]; Log10 Concentration −6.0): 95%
- Percent Growth ([1]; Log10 Concentration −7.0): 116%
- Percent Growth ([1]; Log10 Concentration −8.0): 100%
- GI50 [2]: 10.2 µM
- TGI [2]: 23.9 µM
- Percent Growth ([2]; Log10 Concentration −4.0): −84%
- Percent Growth ([2]; Log10 Concentration −5.0): 51%
- Percent Growth ([2]; Log10 Concentration −6.0): 94%
- Percent Growth ([2]; Log10 Concentration −7.0): 99%
- Percent Growth ([2]; Log10 Concentration −8.0): 102%
- GI50 [3]: 6.78 µM
- Percent Growth ([3]; Log10 Concentration −4.0): −82%
- Percent Growth ([3]; Log10 Concentration −5.0): 42%
- Percent Growth ([3]; Log10 Concentration −6.0): 91%
- Percent Growth ([3]; Log10 Concentration −7.0): 96%
- Percent Growth ([3]; Log10 Concentration −8.0): 91%
- GI50 [4]: 17 µM
- TGI [4]: 34.4 µM
- Percent Growth ([4]; Log10 Concentration −4.0): −76%
- Percent Growth ([4]; Log10 Concentration −5.0): 88%
- Percent Growth ([4]; Log10 Concentration −6.0): 113%
- Percent Growth ([4]; Log10 Concentration −7.0): 113%
- Percent Growth ([4]; Log10 Concentration −8.0): 103%
- GI50 [5]: 3.35 µM
- TGI [5]: 14 µM
- Percent Growth ([5]; Log10 Concentration −4.0): −81%
- Percent Growth ([5]; Log10 Concentration −5.0): 14%
- Percent Growth ([5]; Log10 Concentration −6.0): 90%
- Percent Growth ([5]; Log10 Concentration −7.0): 100%
- Percent Growth ([5]; Log10 Concentration −8.0): 98%
- GI50 [6]: 15.8 µM
- TGI [6]: 30.4 µM
- Percent Growth ([6]; Log10 Concentration −4.0): −91%
- Percent Growth ([6]; Log10 Concentration −5.0): 85%
- Percent Growth ([6]; Log10 Concentration −6.0): 99%
- Percent Growth ([6]; Log10 Concentration −7.0): 101%
- Percent Growth ([6]; Log10 Concentration −8.0): 100%
- GI50 [7]: 10.4 µM
- TGI [7]: 2.256−5 M
- Percent Growth ([7]; Log10 Concentration −4.0): −96%
- Percent Growth ([7]; Log10 Concentration −5.0): 52%
- Percent Growth ([7]; Log10 Concentration −6.0): 73%
- Percent Growth ([7]; Log10 Concentration −7.0): 75%
- Percent Growth ([7]; Log10 Concentration −8.0): 75%
- GI50 [8]: 2.72 µM
- TGI [8]: 11.4 µM
- Percent Growth ([8]; Log10 Concentration −4.0): −92%
- Percent Growth ([8]; Log10 Concentration −5.0): 5%
- Percent Growth ([8]; Log10 Concentration −6.0): 84%
- Percent Growth ([8]; Log10 Concentration −7.0): 96%
- Percent Growth ([8]; Log10 Concentration −8.0): 95%
- CC50 ([8]; read-out: LC50): 37 µM
- GI50 [9]: 2.72 µM
- TGI [9]: 12.3 µM
- Percent Growth ([9]; Log10 Concentration −4.0): −74%
- Percent Growth ([9]; Log10 Concentration −5.0): 7%
- Percent Growth ([9]; Log10 Concentration −6.0): 83%
- Percent Growth ([9]; Log10 Concentration −7.0): 96%
- Percent Growth ([9]; Log10 Concentration −8.0): 100%
- GI50 [10]: 3.43 µM
- TGI [10]: 15.7 µM
- Percent Growth ([10]; Log10 Concentration −4.0): −98%
- Percent Growth ([10]; Log10 Concentration −5.0): 24%
- Percent Growth ([10]; Log10 Concentration −6.0): 80%
- Percent Growth ([10]; Log10 Concentration −7.0): 92%
- Percent Growth ([10]; Log10 Concentration −8.0): 89%
- GI50 [11]: 3.75 µM
- TGI [11]: 16.2 µM
- Percent Growth ([11]; Log10 Concentration −4.0): −71%
- Percent Growth ([11]; Log10 Concentration −5.0): 19%
- Percent Growth ([11]; Log10 Concentration −6.0): 92%
- Percent Growth ([11]; Log10 Concentration −7.0): 94%
- Percent Growth ([11]; Log10 Concentration −8.0): 97%
- GI50 [12]: 3.34 µM
- TGI [12]: 16.1 µM
- Percent Growth ([12]; Log10 Concentration −4.0): −81%
- Percent Growth ([12]; Log10 Concentration −5.0): 21%
- Percent Growth ([12]; Log10 Concentration −6.0): 82%
- Percent Growth ([12]; Log10 Concentration −7.0): 91%
- Percent Growth ([12]; Log10 Concentration −8.0): 91%
- GI50 [13]: 2.58 µM
- TGI [13]: 11.4 µM
- Percent Growth ([13]; Log10 Concentration −4.0): −64%
- Percent Growth ([13]; Log10 Concentration −5.0): 4%
- Percent Growth ([13]; Log10 Concentration −6.0): 82%
- Percent Growth ([13]; Log10 Concentration −7.0): 91%
- Percent Growth ([13]; Log10 Concentration −8.0): 87%
- GI50 [14]: 5.69 µM
- TGI [14]: 20.8 µM
- Percent Growth ([14]; Log10 Concentration −4.0): −79%
- Percent Growth ([14]; Log10 Concentration −5.0): 37%
- Percent Growth ([14]; Log10 Concentration −6.0): 91%
- Percent Growth ([14]; Log10 Concentration −7.0): 99%
- Percent Growth ([14]; Log10 Concentration −8.0): 107%
- GI50 [15]: 2.38 µM
- TGI [15]: 12.6 µM
- Percent Growth ([15]; Log10 Concentration −4.0): −65%
- Percent Growth ([15]; Log10 Concentration −5.0): 7%
- Percent Growth ([15]; Log10 Concentration −6.0): 76%
- Percent Growth ([15]; Log10 Concentration −7.0): 88%
- Percent Growth ([15]; Log10 Concentration −8.0): 82%
- GI50 [16]: 2.42 µM
- TGI [16]: 8.46 µM
- Percent Growth ([16]; Log10 Concentration −4.0): −97%
- Percent Growth ([16]; Log10 Concentration −5.0): −7%
- Percent Growth ([16]; Log10 Concentration −6.0): 85%
- Percent Growth ([16]; Log10 Concentration −7.0): 105%
- Percent Growth ([16]; Log10 Concentration −8.0): 108%
- CC50 ([16]; read-out: LC50): 30.4 µM
- GI50 [17]: 31.2 µM
- TGI [17]: >100 µM
- Percent Growth ([17]; Log10 Concentration −4.0): 4%
- Percent Growth ([17]; Log10 Concentration −5.0): 95%
- Percent Growth ([17]; Log10 Concentration −6.0): 103%
- Percent Growth ([17]; Log10 Concentration −7.0): 107%
- Percent Growth ([17]; Log10 Concentration −8.0): 103%
- GI50 [18]: 15.7 µM
- TGI [18]: 33.3 µM
- Percent Growth ([18]; Log10 Concentration −4.0): −73%
- Percent Growth ([18]; Log10 Concentration −5.0): 80%
- Percent Growth ([18]; Log10 Concentration −6.0): 94%
- Percent Growth ([18]; Log10 Concentration −7.0): 96%
- Percent Growth ([18]; Log10 Concentration −8.0): 97%
- GI50 [19]: 18.1 µM
- TGI [19]: 42.2 µM
- Percent Growth ([19]; Log10 Concentration −4.0): −51%
- Percent Growth ([19]; Log10 Concentration −5.0): 85%
- Percent Growth ([19]; Log10 Concentration −6.0): 94%
- Percent Growth ([19]; Log10 Concentration −7.0): 98%
- Percent Growth ([19]; Log10 Concentration −8.0): 95%
